This is an account of results in patent publication US11820766B2, “Monoacylglycerol lipase modulators” (Janssen Pharmaceutica NV, priority 2018, dated 2023).

The first assay deals with T1, human MGL from HeLa cells (Homo sapiens, UniProt Q99685).
T1 construct: combining endogenously expressed MGL from HeLa cells with test compounds; endogenous in cells; host or cells: HeLa cells / cell homogenates
T1 sequence (Q99685 1-303): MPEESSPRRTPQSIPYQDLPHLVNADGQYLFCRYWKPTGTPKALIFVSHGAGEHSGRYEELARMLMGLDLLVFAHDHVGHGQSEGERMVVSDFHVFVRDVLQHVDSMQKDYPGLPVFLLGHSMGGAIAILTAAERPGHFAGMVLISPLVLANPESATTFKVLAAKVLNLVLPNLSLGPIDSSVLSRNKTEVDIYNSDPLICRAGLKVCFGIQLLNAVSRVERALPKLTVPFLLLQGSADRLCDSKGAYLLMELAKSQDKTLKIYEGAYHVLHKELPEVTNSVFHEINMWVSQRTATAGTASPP
Description: In vitro MGL activity assay: [glycerol-1,3-3H]-oleyl glycerol cleavage by MGL from HeLa cells. The settings on record: 300 nM [Glycerol-1,3-3H]-oleyl glycerol, one hour. The format is biochemical. An excerpt:
MGL is the predominant hydrolase in HeLa cells/cell homogenates.
Broadly, the IC50 is the concentration that gives 50% inhibition. For `Cc1nn2ncccc2c1C(=O)N1CCc2c(nn(C)c2-c2cc(F)c(F)c(F)c2)[C@@H]1C` [Example 442, [(7S)-2,7-Dimethyl-3-(3,4,5-trifluorophenyl)-5,7-dihydro-4H-pyrazolo[3,4-c]pyridin-6-yl]-(2-methylpyrazolo[1,5-b]pyridazin-3-yl) methanone], the IC50 was found to be 43.9 nM. Molecule `C[C@H]1c2nn(C)c(-c3cc(F)c(F)c(F)c3)c2CCN1C(=O)c1ccnc2[nH]cc(F)c12` [Example 605, [(7S)-2,7-Dimethyl-3-(3,4,5-trifluorophenyl)-5,7-dihydro-4H-pyrazolo[3,4-c]pyridin-6-yl]-(3-fluoro-1H-pyrrolo[2,3-b]pyridin-4-yl)methanone] returned a half-inhibitory concentration (IC50) of 1.1 nM. Same read-out and setting: then `Cc1nc2ccccn2c1C(=O)N1CCc2c(nn(C)c2-c2cc(F)c(F)c(F)c2)[C@@H]1C` [Example 397, [(7S)-2,7-Dimethyl-3-(3,4,5-trifluorophenyl)-5,7-dihydro-4H-pyrazolo[3,4-c]pyridin-6-yl]-(2-methylimidazo[1,2-a]pyridin-3-yl)methanone], with 10.3 nM; and `Cc1nc2c(C)cccn2c1C(=O)N1CCc2c(nn(C)c2-c2cc(F)c(F)c(F)c2)[C@@H]1C` [Example 403, (2,8-Dimethylimidazo[1,2-a]pyridin-3-yl)-[(7S)-2,7-dimethyl-3-(3,4,5-trifluorophenyl)-5,7-dihydro-4H-pyrazolo[3,4-c]pyridin-6-yl]methanone], with 43.6 nM; and `Cc1c(C(=O)N2CCc3c(nn(C)c3-c3cc(F)c(F)c(F)c3)[C@@H]2C)ccn1C` [Example 351, (1,2-Dimethylpyrrol-3-yl)-[(7S)-2,7-dimethyl-3-(3,4,5-trifluorophenyl)-5,7-dihydro-4H-pyrazolo[3,4-c]pyridin-6-yl]methanone], with 8.9 nM. The same measure, in the same setting: the result for `Cc1nc2ccc(C(=O)N3CCc4c(nn(C)c4-c4cc(F)c(F)c(F)c4)[C@@H]3C)cc2nc1C` [Example 476, (2,3-Dimethylquinoxalin-6-yl)-[(7S)-2,7-dimethyl-3-(3,4,5-trifluorophenyl)-5,7-dihydro-4H-pyrazolo[3,4-c]pyridin-6-yl]methanone] reads 25.4 nM; that for `C[C@H]1c2nn(C)c(-c3cc(F)c(F)c(F)c3)c2CCN1C(=O)c1ncnc2nc[nH]c12` [Example 470, [(7S)-2,7-Dimethyl-3-(3,4,5-trifluorophenyl)-5,7-dihydro-4H-pyrazolo[3,4-c]pyridin-6-yl]-(7H-purin-6-yl)methanone], 3350 nM.

Consider `Cc1nn(C)cc1C(=O)N1CCc2c(nn(C)c2-c2cc(F)c(F)c(F)c2)[C@@H]1C` [Example 343, (1,3-Dimethylpyrazol-4-yl)-[(7S)-2,7-dimethyl-3-(3,4,5-trifluorophenyl)-5,7-dihydro-4H-pyrazolo[3,4-c]pyridin-6-yl]methanone], for which it took 308 nM to reach half-maximal inhibition (IC50). As for `C[C@H]1c2nn(C)c(-c3cc(F)c(F)c(F)c3)c2CCN1C(=O)c1cnc2c(c1)COCC2` [Example 567, 7,8-Dihydro-5H-pyrano[4,3-b]pyridin-3-yl-[(7S)-2,7-dimethyl-3-(3,4,5-trifluorophenyl)-5,7-dihydro-4H-pyrazolo[3,4-c]pyridin-6-yl]methanone], half-maximal inhibition (IC50) required 1050 nM.

On to `Cc1nn(C)c(C)c1C(=O)N1CCc2c(nn(C)c2-c2cc(F)c(F)c(F)c2)[C@@H]1C` [Example 344, [(7S)-2,7-Dimethyl-3-(3,4,5-trifluorophenyl)-5,7-dihydro-4H-pyrazolo[3,4-c]pyridin-6-yl]-(1,3,5-trimethylpyrazol-4-yl)methanone], for which the IC50 is 58.1 nM.

Still in this assay, the particulars now being: 300 nM [Glycerol-1,3-3H]-oleyl glycerol, one hour incubation.
Turning to `CC(C)Oc1cncc(C(=O)N2CCc3c(nn(C)c3-c3cc(F)c(F)c(F)c3)[C@@H]2C)c1` [Example 305, [(7S)-2,7-Dimethyl-3-(3,4,5-trifluorophenyl)-5,7-dihydro-4H-pyrazolo[3,4-c]pyridin-6-yl]-(5-isopropoxy-3-pyridyl)methanone], the IC50 was 229 nM. Still for that read-out and setting: the result for `C[C@H]1c2nn(C)c(-c3cc(F)cc(F)c3)c2CCN1C(=O)c1cc(C(F)(F)F)c2ncccc2c1` [Example 164, (S)-(3-(3,5-Difluorophenyl)-2,7-dimethyl-2,4,5,7-tetrahydro-6H-pyrazolo[3,4-c]pyridin-6-yl)(8-(trifluoromethyl)quinolin-6-yl)methanone] reads 38.4 nM.

As for `Cc1ccc(-n2nccn2)c(C(=O)N2CCc3c(nn(C)c3-c3cc(F)c(F)c(F)c3)[C@@H]2C)c1` [Example 197, (S)-(2,7-Dimethyl-3-(3,4,5-trifluorophenyl)-2,4,5,7-tetrahydro-6H-pyrazolo[3,4-c]pyridin-6-yl)(5-methyl-2-(2H-1,2,3-triazol-2-yl)phenyl)methanone], half-maximal inhibition (IC50) was put at 60 nM. In turn, `C[C@H]1c2nn(C)c(-c3cc(F)c(F)c(F)c3)c2CCN1C(=O)c1cncc(-n2cccn2)c1` [Example 318, [(7S)-2,7-Dimethyl-3-(3,4,5-trifluorophenyl)-5,7-dihydro-4H-pyrazolo[3,4-c]pyridin-6-yl]-(5-pyrazol-1-yl-3-pyridyl)methanone] registered a concentration for half-maximal inhibition (IC50) of 178 nM.

Molecule `Cn1nc2c(c1-c1ccccc1)CCN(C(=O)c1cccc3c1OCO3)C2` [Example 28, Benzo[d][1,3]dioxol-4-yl(2-methyl-3-phenyl-2,4,5,7-tetrahydro-6H-pyrazolo[3,4-c]pyridin-6-yl)methanone] came in with a half-inhibitory concentration (IC50) of 4000 nM. Take `Cn1nc2c(c1-c1ccccc1)CCN(C(=O)c1ccnc3ccccc13)C2` [Example 86, (2-Methyl-3-phenyl-2,4,5,7-tetrahydro-6H-pyrazolo[3,4-c]pyridin-6-yl)(quinolin-4-yl)methanone]: the IC50 turned out to be 32.4 nM. Still for that read-out and setting: the result for `C[C@H]1c2nn(C)c(-c3cc(F)c(F)c(F)c3)c2CCN1C(=O)c1cccc(-n2cc(F)cn2)c1` [Example 275, [(7S)-2,7-Dimethyl-3-(3,4,5-trifluorophenyl)-5,7-dihydro-4H-pyrazolo[3,4-c]pyridin-6-yl]-[3-(4-fluoropyrazol-1-yl)phenyl]methanone] reads 67.3 nM; that for `COc1cnc(C)c(C(=O)N2CCc3c(nn(C)c3-c3cc(F)c(F)c(F)c3)[C@@H]2C)c1` [Example 308, [(7S)-2,7-Dimethyl-3-(3,4,5-trifluorophenyl)-5,7-dihydro-4H-pyrazolo[3,4-c]pyridin-6-yl]-(5-methoxy-2-methyl-3-pyridyl)methanone], 115 nM; that for `C[C@H]1c2nn(C)c(-c3cc(F)cc(F)c3)c2CCN1C(=O)c1ccc2ncccc2c1` (single isomer, unassigned) [Example 159], 7.3 nM. Still for that read-out and setting: then `Cn1nc2c(c1-c1ccccc1)CCN(C(=O)c1nn(C)c3ccccc13)C2` [Example 70, (1-Methyl-1H-indazol-3-yl)(2-methyl-3-phenyl-2,4,5,7-tetrahydro-6H-pyrazolo[3,4-c]pyridin-6-yl)methanone], with 380 nM. On the same count and under the same terms, then `C[C@H]1c2nn(C)c(-c3cc(F)cc(F)c3)c2CCN1C(=O)c1cccc(OCCF)c1Cl` [Example 145, [2-Chloro-3-(2-fluoroethoxy)phenyl]-[(7S)-3-(3,5-difluorophenyl)-2,7-dimethyl-5,7-dihydro-4H-pyrazolo[3,4-c]pyridin-6-yl]methanone], with 2.13 nM; and `C[C@H]1c2nn(C)c(-c3cc(F)c(F)c(F)c3)c2CCN1C(=O)c1cccc(-c2cn[nH]c2)c1` [Example 272, [(7S)-2,7-Dimethyl-3-(3,4,5-trifluorophenyl)-5,7-dihydro-4H-pyrazolo[3,4-c]pyridin-6-yl]-[3-(1H-pyrazol-4-yl)phenyl]methanone], with 14.6 nM; and `Cn1nc2c(c1-c1ccccc1)CCN(C(=O)c1nc3ccccc3o1)C2` [Example 57, Benzo[d]oxazol-2-yl(2-methyl-3-phenyl-2,4,5,7-tetrahydro-6H-pyrazolo[3,4-c]pyridin-6-yl)methanone], with 1680 nM. As to `Cn1nc2c(c1-c1ccccc1)CCN(C(=O)c1cnn3ccccc13)C2` [Example 74, (2-Methyl-3-phenyl-2,4,5,7-tetrahydro-6H-pyrazolo[3,4-c]pyridin-6-yl)(pyrazolo[1,5-a]pyridin-3-yl)methanone], the concentration for half-maximal inhibition (IC50) stood at 613 nM. In turn, `C[C@H]1c2nn(C)c(-c3cccc(Cl)c3)c2CCN1C(=O)c1cc(Cl)cc(OC(F)(F)F)c1` [Example 116, (S)-(3-Chloro-5-(trifluoromethoxy)phenyl)(3-(3-chlorophenyl)-2,7-dimethyl-2,4,5,7-tetrahydro-6H-pyrazolo[3,4-c]pyridin-6-yl)methanone] came in with a half-maximal inhibitory concentration (IC50) of 199 nM. In the case of `C[C@H]1c2nn(C)c(-c3cc(Cl)cc(Cl)c3)c2CCN1C(=O)c1ccc2nccnc2c1` [Example 175, (S)-(3-(3,5-Dichlorophenyl)-2,7-dimethyl-2,4,5,7-tetrahydro-6H-pyrazolo[3,4-c]pyridin-6-yl)(quinoxalin-6-yl)methanone], the concentration for half-maximal inhibition (IC50) amounted to 6.24 nM. For the molecule `COc1ccnc(C(=O)N2CCc3c(nn(C)c3-c3cc(F)c(F)c(F)c3)[C@@H]2C)c1C` [Example 307, [(7S)-2,7-Dimethyl-3-(3,4,5-trifluorophenyl)-5,7-dihydro-4H-pyrazolo[3,4-c]pyridin-6-yl]-(4-methoxy-3-methyl-2-pyridyl)methanone], the IC50 turned out to be 181 nM. On the same count and under the same terms, the result for `C[C@H]1c2nn(C)c(-c3cc(F)cc(F)c3)c2CCN1C(=O)c1ccc2ncc(OCCF)cc2c1` [Example 166, (S)-(3-(3,5-Difluorophenyl)-2,7-dimethyl-2,4,5,7-tetrahydro-6H-pyrazolo[3,4-c]pyridin-6-yl)(3-(2-fluoroethoxy)quinolin-6-yl)methanone] reads 11.3 nM; that for `Cn1nc2c(c1-c1ccccc1)CCN(C(=O)c1noc3ccccc13)C2` [Example 53, Benzo[d]isoxazol-3-yl(2-methyl-3-phenyl-2,4,5,7-tetrahydro-6H-pyrazolo[3,4-c]pyridin-6-yl)methanone], 32.2 nM.
